The values that follow come from patent publication US9593146B2, “CD44v6-derived peptides for treating metastasizing cancer” (AMCURE GMBH, priority 2012, dated 2017).

One data set relates to L3.6pl cells. Kind of data set: Human orthotopic model of pancreatic cancer, L3.6pl cells in nude mice. The conditions noted are these: for reduction of tumor size, ranking (side-by-side comparison): 20 μg per injection three times per week for 3 weeks (FIG. 23A); for variability in the individual tumor size within the group: 20 μg per injection three times per week for 3 weeks (FIG. 23B); for metastatic spreading to the liver (side-by-side comparison): 20 μg per injection three times per week for 3 weeks (FIG. 24); for tumor growth compared to the control peptide (side-by-side comparison): 20 μg per injection three times per week for 3 weeks, 5 animals per group. The data set is classed as in vivo. As for the experimental part: In the case of the human orthotopic model, L3.6pl pancreatic carcinoma cells (passage 24-26) were suspended in Hank's balanced salt solution (Invitrogen, Karlsruhe, Germany) after trypsinization. The cells were injected orthotopically in the pancreas of male nude mice as described (Bruns C J et al. (1999) Neoplasia 1(1):50-62). Two groups of 15 mice each were injected i.p. 7 days later with either the human v6 peptide respectively rat control peptide (20 μg). For all experiments described and depicted herein either the rat 14mer control peptide or the human 14mer peptide were used. All experiments were then repeated with the rat 5mer control peptide or the human 5mer peptide (N-R-W-H-E, SEQ ID NO: 2). […] The injection was repeated three times per week for 21 days. Two days after the last treatment the animals were killed. […]
A comparison of different CD44v6 peptide derivatives was performed in animals bearing a orthotopic L3.6pl tumor. 10 groups of 5 animals each received a dose of 20 μg peptide per injection three times per week for 3 weeks with the compounds listed in Table 4. Three weeks after starting the treatment the animals were sacrificed and analyzed for macroscopic metastases and tumor volume.

A further data set relates to HT29 cells. Kind of data set: HGF induced scattering of HT29 cells. Format: cell-based, human. As for the experimental part: FIG. 17: The human CD44 v6 specific peptides block HGF induced cell scattering and invasion into matrigel. Scattering of HT29 cells was determined in 24-well plates. First, 4.5×10^4 cells were seeded at 37° C.; after 24 h the cells were serum starved for additional 24 h. the cells were either left untreated (control) or later treated with HGF (50 ng/ml) for 24 h. Where indicated the cells were treated with the v6 specific peptide (human v6 5mer, 10mer, 14mer) or control peptide prior to induction with HGF for 30 min. Pictures were made using phase contrast microscopy. Magnification 40×.
A scatter assay was performed additionally. HT29 colon cancer cells were grown in medium containing 10% FCS. One day after seeding, the cells were starved. On the third day, the cells were induced with HGF (10 ng/ml) and pre-incubated with either no peptide, ctrl-peptides (SEQ ID No.: 15), non-pegylated v6-peptides (SEQ ID No.: 11) or the pegylated peptides, namely PEG-rat control peptide and PEG-rat CD44v6 peptide.
Scattering of HT29 cells was determined in 24-well plates. First, 4×10^5 cells were seeded at 37° C.; the cells were either left untreated or 48 h later treated with HGF (50 ng/ml) for 24 h or with PEGylated or non-PEGylated peptides (100 ng/ml) prior to HGF induction for 30 min.

Another data set relates to Met and ERK. Kind of data set: HGF induced activation of Met and Erk in BSp73ASs6 cells (Western blot). The data set is classed as cell-based, rat. The conditions noted are these: ASs6 cells, peptides with 2000 dalton PEG-chain, 150 nM 10 min before HGF 10 ng/ml (FIG. 10). Here is the method: Serum-starved cells (24 hours) were induced with the growth factor HGF (10 ng/mL) at 37° C. for 5 minutes. Where indicated, the cells were treated with peptides (100 ng/ml) prior to induction at 37° C. for 10 minutes (100 ng/mL CD44v6 peptide or control peptide). Following the induction with HGF, cells were washed with ice-cold phosphate-buffered saline (PBS). To detect activated Met and Erk, cells were lysed in sodium dodecyl sulfate (SDS)-sample buffer containing 100 mM dithiothreitol (DTT), boiled and subjected to western blot analysis using antibodies against phospho-Met and ERK. The loading controls were performed on the same blot after stripping (62.5 mM Tris, pH 6.8, 2% SDS, 0.8% DTT) by probing with the Met respectively ERK antibody. Blots were stained using the enhanced chemiluminescence system (Thermo Fisher Scientific, Schwerte, Germany). Bands in western blot analysis were quantified with the program Image J (National Institutes of Health).
Rat pancreatic cancer cells BSp73ASs6 (also designated Ass6) were incubated for 10 min at 37° C. with either ctrl-peptides (SEQ ID No.: 15), non-pegylated v6-peptides (SEQ ID No.: 11) and increasing concentrations of the pegylated peptides, namely PEG-rat control peptide and PEG-rat CD44v6 peptide, before induction with HGF (10 ng/ml; 5 min at 37° C.).
Activation of ERK and Met was determined by standard SDS and Western Blotting techniques using a phospho-Met and phospho-Erk specific antibody (phospho-Met clone D16 cell signaling, phospho-Erk p42/44 cell signaling)
ASs6 cells, serum starved for 24 h, were induced with HGF (10 ng/ml) at 37° C. for 5 min. Where indicated, the cells were treated with PEGylated or non-PEGylated peptides before induction at 37° C. for 10 min (150 nM). Cells were washed with phosphate-buffered saline (PBS) and lysed in boiling sodium dodecyl sulfate (SDS)-sample buffer containing 100 mM dithiothreitol (DTT). Subsequently, lysates were subjected to Western blot analysis using antibodies against phosphorylated Mek and Erk (Cell signaling). The Mek and Erk loading control were performed on the same blot, stripped (62.5 mM Tris pH 6.8, 2% SDS, 0.8% DTT) and probed with the Mek and Erk antibodies. Blots were stained using the enhanced chemiluminescence system (Thermo Fisher Scientific).

In data set [1] the test system is BSp73ASs6 cells. Kind of data set: Rat syngeneic model, subcutaneous BSp73ASs6 tumor, metastasis formation. The conditions noted are these: 200 μg per injection, intra-tumoral or intravenously three times a week, start after one week of tumor growth. Format: in vivo. As for the experimental part: In the case of the rat syngeneic model, 1×10^6 pancreatic cells (BSp73AS and its transfectants) were subcutaneously injected into the right posterior flank of the animals. Tumors developed for four weeks. During this time period animals injected with BSp73ASs6 cells expressing Met-shRNA or control-shRNA received doxycycline in the drinking water. At the end of the experiment, primary tumors were isolated. Lungs and axillary lymph nodes were analyzed. The tissues were incubated for 24 h in a zinc-fixative (0.5 g calcium acetate, 5.0 g zinc acetate, 5.0 g zinc chloride, in 1 L 0.1 M Tris pH 7.4) and embedded in paraffin for further analysis. In case of peptide or antibody treatment tumors developed for one week before the first treatment. Where indicated, animals received 200 μg of peptide or antibody per injection three times per week for four weeks. Tumor growth was monitored weekly using a caliper. Animals were killed at day 28 or 30 after start of the treatment.
For histo-morphological analysis paraffin-embedded sections of lungs were stained with hematoxylin and eosin and periodic acid-Schiff (H&E or PAS). Serial sections of the whole tissue blocks were examined by analyzing slices every 20 μm; in each slice, the presence and the extension of the metastatic deposit was assessed, according to the procedure routinely used by pathologists to evaluate the presence of micro-metastases.

The test system of data set [2] is BSp73ASs6 cells. Kind of data set: Apoptosis in established lung metastases (cleaved Caspase-3, cleaved Caspase-8), BSp73ASs6 rat model. The data set is classed as in vivo. The conditions noted are these: injection every second day. As for the experimental part: 7 μm thick paraffin sections were deparaffinized and rehydrated. For P-Met staining antigen unmasking was achieved by boiling the slides in 1 mM EDTA pH 8.0 followed by incubation for 15 minutes at a sub-boiling temperature, for CD31 staining the sections were treated with Proteinase K (8 μg/ml) for 10 min at 37° C. For immunofluorescence staining of P-Met, unspecific binding was blocked with 5% goat serum (DAKO, Glostrup, Denmark) (diluted in 1×PBS/0.3% Triton X-100) for 60 minutes. In the case of immunohistochemistry, endogenous peroxidases were at first blocked with 3% H2O2 in PBS followed by incubation with biotin blocking system (Dako, Glostrup, Denmark) and then unspecific binding was inhibited by incubation with 5% FCS in PBS. The sections were incubated with the P-Met antibody (D26, dilution 1:50 in 1×PBS/1% BSA/0.3% Triton X-100), Met antibody (C-28, dilution 1:50), GFP antibody (sc-101525, dilution 1:50) or CD31 antibody (5 μg/ml) over night or VFF18 (5 μg/ml) o/n at 4° C. After washing in PBS the sections were incubated with Alexa Fluor R 546 goat anti-rabbit (in case of immunofluorescence P-Met and Met staining, dilution 1:500) or a biotinylated secondary antibody (for immunohistochemical stainings rabbit anti-rat antibody for VFF18 and CD31, goat anti-rabbit for P-Met, cleaved Caspase-3 and cleaved Caspase-8 and rabbit anti-mouse for GFP, dilution 1:500) for 45 minutes. For DAB (3,3′-diaminobenzidine) staining the sections were treated with a streptavidin-peroxidase conjugate (Dako, Glostrup, Denmark) and developed with DAB substrate system (3,3′-diaminobenzidine; Biozol, Eching, Germany). For immunofluorescence DAPI was used for nuclear staining.
One hypothesis for the disappearance of metastases is that the peptides induce apoptosis of CD44v6-expressing metastatic cells in the secondary organs. In order to test this hypothesis, the experiment described above using the BSp73ASs6 cells was repeated. The cells were injected subcutaneously in syngeneic rats and the tumor was allowed to develop for three weeks. After that time the animals were separated in two groups of 10 animals that were injected either with the specific rat CD44v6 peptide or with the control peptide (mouse) every second day. One day following each injection of the peptide, the lungs of one animal were removed and apoptosis was measured using an antibody that detects the cleaved form of Caspase 3. […] Twelve days after injection of the CD44v6 peptide, less apoptosis was observed. […] From these experiments, it is concluded that the CD44v6 peptide induces apoptosis of metastatic cells.

Residues, ends and D or L forms follow the SMILES beside them. No end group written: not given here. *: point of attachment. PEG2000 = polyethylene glycol with a molecular weight of 2000 Da; DOTA = O=C(O)CN1CCN(CC(=O)O)CCN(CC(=O)*)CCN(CC(=O)O)CC1; Myristoyl = CCCCCCCCCCCCCC(=O)*

With “PEG2000-KEQWFGNRWHEGYR-OH [PEG2000 14-mer]”, in the data set on L3.6pl cells, the “reduction of tumor size, ranking (side-by-side comparison)” value (“reduction of tumor size, ranking” below) is on record as “strongest reduction of tumor size”; the “variability in the individual tumor size within the group” value (“variability” below) is recorded as “low variability”; the “metastatic spreading to the liver (side-by-side comparison)” value (shortened to “metastatic spreading to the liver”) is reported as “decrease of metastatic spreading”; the “tumor growth compared to the control peptide (side-by-side comparison)” value is recorded as “significant reduction in tumor growth”.
With “Myr-Y-cy[KGNRWHEG] (Myristoyl-YKGNRWHEG; not fully specified (bridges); printed as Myr-Y-cy[KGNRWHEG]; also: cyclic, ring closure not given here) [Myr-Y-cycl 8 mer]”, in the data set on L3.6pl cells, the “metastatic spreading to the liver” value is recorded as “decrease of metastatic spreading”.
As for “NAAAG [ctrl-peptides, reference compound]”, the “HGF induced clustering / scattering of HT29 cells (FIG. 11)” value in the data set on HT29 cells (HGF 10 ng/ml, peptide pre-incubation (Example 2)) was “not control peptides lead to dissociation and migration”.
For the molecule “PEG-NAAAG [PEG-control peptide, pegylated control peptide, 3 essential aa replaced by alanines, reference compound]”, the “HGF induced scattering of HT29 cells” value in the data set with HT29 cells (PEGylated peptides 100 ng/ml prior to HGF 50 ng/ml (Example 5, FIG. 11)) is reported as “not with PEGylated control peptides”. Moreover, in the data set on Met and ERK, the “HGF induced Met-phosphorylation and Erk signaling” value is listed as “showed no effect”.
On to “cy[KGNRWHEG] (not fully specified (bridges); printed as cy[KGNRWHEG]; also: cyclic, ring closure not given here) [cycl. 8 mer]”, for which, in the data set with L3.6pl cells, the “reduction of tumor size, ranking” value is “strongest reduction of tumor size”; the “variability” value is on record as “low variability”; the “metastatic spreading to the liver” value is “complete inhibition of metastasis”. Also, the “metastatic spreading at 2 and 20 μg per injection” value with L3.6pl cells (2 and 20 μg per injection, three times per week) was “blocked metastatic spreading”. Also, the “size / growth of the primary tumor (dose reduction study)” value in the data set on L3.6pl cells (three injections per week for 3 weeks, compared to control groups (FIG. 22C)) is recorded as “drastic effect on growth of the primary tumor”.
As to “DOTA-KEQWFGNRWHEGYR ({DOTA}-KEQWFGNRWHEGYR; not fully specified (residue 14)) [DOTA CD44v6-14 [r^14]]”, in the data set on L3.6pl cells, the “metastatic spreading to the liver” value was “complete inhibition of metastasis”.
On the same count and under the same terms, then “DOTA-keqwfGNRWHEGyr [DOTA CD44v6-14 [daa7]]”, with “decrease of metastatic spreading”.
On to “mouse control peptides: mouse CD44v6 peptide used as control in the rat syngeneic model (WFQNGWQGKNP) [reference compound]”, for which, in the data set on BSp73ASs6 cells [1], the “metastasis (axillary lymph nodes, lungs)” value is “numerous metastases were detected in the lungs”. For the same molecule, in the data set on BSp73ASs6 cells [2], the “apoptosis (cleaved Caspase 3) in lung metastases” value is given as “No apoptosis at all was detected” and the “lung metastasis at day twenty-two” value is recorded as “metastatic spreading was evident in the lungs”.
In the case of DOTA-cy[KRWHE] [cycl 5 mer], in the data set on L3.6pl cells, the “reduction of tumor size, ranking” value is listed as “strongest reduction of tumor size”; the “variability” value is recorded as “low variability”; the “metastatic spreading to the liver” value is given as “complete inhibition of metastasis”.
For the molecule `N=C(N)NCCC[C@H](NC(=O)[C@@H](N)CC(N)=O)C(=O)N[C@@H](Cc1c[nH]c2ccccc12)C(=O)N[C@@H](Cc1c[nH]cn1)C(=O)N[C@@H](CCC(=O)O)C(=O)O` [human 5mer, NRWHE] (H-NRWHE-OH; N-terminus and C-terminus assumed), in the data set on L3.6pl cells (200 μg per injection i.p. three times per week), the “side effects in the animals” value was “did not lead to side effects in the animals”.
Consider “PEG840-KEQWFGNRWHEGYR-OH [PEG840 14-mer]”, for which, in the data set on L3.6pl cells, the “metastatic spreading to the liver” value is reported as “decrease of metastatic spreading” and the “tumor growth compared to the control peptide (side-by-side comparison)” value is “significant reduction in tumor growth”.
On to “Myr-KEQWFGNRWHEGYR (Myristoyl-KEQWFGNRWHEGYR) [Myristoyl-14-mer]”, for which the “tumor growth compared to the control peptide (side-by-side comparison)” value in the data set with L3.6pl cells was “no inhibitory effect on tumor growth”.
